Results as given in ChEMBL document CHEMBL3808370, “Nortriketones: Antimicrobial Trimethylated Acylphloroglucinols from Ma̅nuka (Leptospermum scoparium)” (J Nat Prod, 2016).
Values after ≈ are worked out from the molar mass of the structure shown. Active and inactive are the calls of the source. No cut-off for these calls is given here.

Experiments:
[1] = system: Staphylococcus aureus; experiment: Antibacterial activity against methicillin-resistant Staphylococcus aureus by two-fold broth dilution method; assay type: functional
[2] = molecular target: T1, 4-hydroxyphenylpyruvate dioxygenase (Arabidopsis thaliana, UniProt P93836); experiment: Inhibition of recombinant Arabidopsis thaliana HPPD overexpressed in Escherichia coli JM105 cells using 4-HPP as substrate preincubated for 15 mins followed by substrate addition and subsequent incubation for 15 mins by HPLC analysis; conditions: read-out: I50
T1 sequence (P93836 whole entry): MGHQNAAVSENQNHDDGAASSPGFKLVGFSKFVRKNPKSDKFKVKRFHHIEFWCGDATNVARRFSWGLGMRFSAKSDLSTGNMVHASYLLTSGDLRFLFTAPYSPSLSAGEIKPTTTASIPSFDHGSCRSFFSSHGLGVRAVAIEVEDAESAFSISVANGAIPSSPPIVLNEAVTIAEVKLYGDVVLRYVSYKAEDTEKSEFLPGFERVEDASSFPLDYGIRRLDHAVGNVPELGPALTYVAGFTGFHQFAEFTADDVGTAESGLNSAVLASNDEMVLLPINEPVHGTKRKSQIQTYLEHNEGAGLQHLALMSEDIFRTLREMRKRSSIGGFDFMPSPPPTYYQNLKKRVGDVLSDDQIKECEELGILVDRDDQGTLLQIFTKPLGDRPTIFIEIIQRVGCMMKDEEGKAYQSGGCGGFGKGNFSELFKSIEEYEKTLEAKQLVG

[3] = system: Escherichia coli; experiment: Antibacterial activity against Escherichia coli; assay type: functional
[4] = system: Enterococcus faecalis; experiment: Antibacterial activity against vancomycin-resistant Enterococcus faecalis incubated for 18 to 24 hrs by broth microdilution method; assay type: functional
[5] = molecular target: T2, 4-hydroxyphenylpyruvate dioxygenase (Arabidopsis thaliana) (UniProt P93836); experiment: Inhibition of recombinant Arabidopsis thaliana HPPD overexpressed in Escherichia coli JM105 cells at 100 uM using 4-HPP as substrate preincubated for 15 mins followed by substrate addition and subsequent incubation for 15 mins by HPLC analysis
T2 sequence (whole entry): T1 sequence (P93836 whole entry)

Row | inhibition [5] | SMILES | MIC [1] | IC50 [2] | MIC [3] | MIC [4]
1 | – | CC1(C)C(=O)C(C(=O)CCc2ccccc2)=C(O)C(C)(C)C1=O | 6 µg/mL (≈ 19.1 µM) | 750 nM | > 512 µg/mL | 6 µg/mL (≈ 19.1 µM)
2 | inactive | CC1=C(O)C(C)(C)C(=O)C(C(=O)C(C)C)=C1O | – | – | – | –
3 | inactive | CC1=C(O)C(C)(C)C(=O)C(C(=O)CC(C)C)=C1O | – | – | – | –

Row | SMILES | inhibition [5] | MIC [1] | IC50 [2] | MIC [3] | MIC [4]
4 | CC1=C(O)C(C)(C)C(=O)C(C(=O)CCc2ccccc2)=C1O | inactive | 64 µg/mL (≈ 213 µM) | – | > 512 µg/mL | 64 µg/mL (≈ 213 µM)
